Measured values: patent publication US20040253252A1, “Biological compositions and methods for treatment of leukemia” (priority 2003, published 2004)
Where two headings read alike, the source gives them in different places.

What was measured:
Type in all cases: in vivo, mouse
leukemia cell line T739 [1] = details: T739 mice; for Number of live animals remaining in the group: 30 mice per group
Protocol: The survival time of the […] after tumor injection and treatment was studied.
(§1) The biological composition comprising 10^8 cells per ml of activated and conditioned yeast cells of the strain Saccharomyces cerevisiae Hansen strain AS2.11 was prepared by the methods described in Section 5.1 and subsections therein.
The animals were prepared in a similar manner as described in Section 8.1.
(§2) The mice injected with tumor cells were immediately divided into 4 experimental groups of ten mice per group and one control group. The four experimental groups were triplicated (i.e., using a total of 120 mice in the experimental groups). In group 2AY, the mice received 0.3 ml of the biological composition once per day. In group 2NY, the mice received 0.3 ml of the untreated yeast cells once per day. […] In group 2CK1, the mice received 0.3 ml of physiological saline once per day.
(§3) The mice in group CK2 also started receiving saline on the same day as the other four groups. […] The mice were observed over 6 months from the day of tumor inoculation and survival was recorded. The number of tumor cells in the mice were determined by standard techniques.

leukemia cell line L6565 [2] = details: SWI mice
Protocol: as §1
(§4) The mice injected with tumor cells were immediately divided into 4 experimental groups of ten mice per group and one control group. The four experimental groups were triplicated (i.e., using a total of 120 mice in the experimental groups).
(§5) The mice in group CK2 also started receiving saline on the same day as the other four groups. […] The number of tumor cells in the mice were determined by standard techniques.

leukemia cell line T739 [3] = details: T739 mice
Protocol: as §1, §4, §5

leukemia cell line L6565 [4] = details: SWI mice; for Number of live animals remaining in the group: 30 mice per group
Protocol: The survival time of mice after tumor injection and treatment was studied.
as §1
The animals were prepared in a similar manner as described in Section 6.1.
as §2, with “kept for 5 days and then were” for “immediately”
as §3

[5] = 1 month after cessation of treatment
[6] = 2 months after cessation of treatment
[7] = 3 months after cessation of treatment
[8] = 4 months after cessation of treatment
[9] = 5 months after cessation of treatment
[10] = 6 months after cessation of treatment

O=P1(N(CCCl)CCCl)NCCCO1 (centres unmarked) [CTX, cyclophosphamide]
Number of live animals remaining in the group (leukemia cell line T739 [1]; 0 month after cessation of treatment): 28 | Number of live animals remaining in the group (leukemia cell line T739 [1]; [5]): 19 | Number of live animals remaining in the group (leukemia cell line T739 [1]; [6]): 3 | Number of live animals remaining in the group (leukemia cell line T739 [1]; [7]): 0 | Number of live animals remaining in the group (leukemia cell line T739 [1]; [8]): 0 | Number of live animals remaining in the group (leukemia cell line T739 [1]; [9]): 0 | Number of live animals remaining in the group (leukemia cell line T739 [1]; [10]): 0 | survival outcome during the experiment (leukemia cell line T739 [1]; observed over 6 months): died during the experiment | development of leukemia (leukemia cell line L6565 [2]; L6565, 21 days of treatment): developed leukemia | number of leukemia cells and standard deviation (leukemia cell line L6565 [2]; L6565 cells s.c., 21 consecutive days of treatment, sacrificed on 22nd day (or measured at time of death)): 933 ± 241 cells/ml | number of leukemia cells and standard deviation (leukemia cell line T739 [3]; T739 cells s.c., 21 consecutive days of treatment, sacrificed on 22nd day (or measured at time of death)): 957 ± 132 cells/ml | development of leukemia (leukemia cell line T739 [3]; 21 days of treatment): developed leukemia | Number of live animals remaining in the group (leukemia cell line L6565 [4]; 0 month after cessation of 21 days of treatment): 28 | Number of live animals remaining in the group (leukemia cell line L6565 [4]; [5]): 19 | Number of live animals remaining in the group (leukemia cell line L6565 [4]; [6]): 3 | Number of live animals remaining in the group (leukemia cell line L6565 [4]; [7]): 0 | Number of live animals remaining in the group (leukemia cell line L6565 [4]; [8]): 0 | Number of live animals remaining in the group (leukemia cell line L6565 [4]; [9]): 0 | Number of live animals remaining in the group (leukemia cell line L6565 [4]; [10]): 0 | survival outcome during the experiment (leukemia cell line L6565 [4]; observed over 6 months): died during the experiment
